# Measurements from patent US6849602B1 (The Regents of the University of California, priority 1996, dated 2005).
# Entries after “also recorded” stand apart in the source; their conditions may differ. Non-standard residues stand in square brackets, D forms with d. No end group written: not given here.
# Columns and labels:
# [1] = test system: NS20Y neuroblastoma cells; experiment: Neurite outgrowth in NS20Y neuroblastoma cells; type: cell-based
# Method: NS20Y neuroblastoma cells are grown in Dulbecco's modified Eagle medium (DMEM) containing 10% fetal calf serum (FCS). Cells are removed with trypsin and plated in 30 mm petri dishes onto glass coverslips. […] Cells are cultured for an additional 24 hours, washed with PBS and fixed with Bouin's solution (saturated aqueous picric acid/formalin/acetic acid 15:5:1) for 30 minutes. After fixative is removed with PBS, neurite outgrowth is scored under a phase contrast microscope. […] At least 200 cells are scored in different positions of each dish to determine the percentage of neurite bearing cells with each peptide assayed in duplicate.
# NS20Y cells = experiment: Neural cell death (trypan blue) in NS20Y cells; type: cell-based; settings: 8 ng/ml, 2 days in 0.5% fetal bovine serum
# Method: Media is removed and 0.2% trypan blue in PBS is added to each well. Dead cells stain blue with the trypan blue dye and are scored as a percentage of the total on an inverted microscope, counting 400 cells in four areas of each well. The average error of duplicates is ±5%.
# Schwann cells = experiment: Schwann cell death in culture (inhibition of demyelination); type: cell-based
# Description: Reduction of Schwann cell death is correlated with inhibition of demyelination. Schwann cells contain an extensive myelin sheath.
# Chung model rats = experiment: Tactile allodynia (von Frey, 50% paw withdrawal threshold) after bolus intrathecal injection in Chung model rats; type: in vivo, rat
# Method: Each of the three peptides were obtained in pure form by chemical synthesis, dissolved in sterile PBS and buffered to a neutral pH.
# The surgical procedure previously described by Kim and Chung, supra (1992) was performed on male Sprague-Dawley rats weighing 120 to 150 grams to induce an allodynic state. Briefly, the rats were anesthetized with halothane; subsequently, the left L-5 and L-6 spinal nerves were isolated adjacent to the vertebral column and ligated with 6.0 silk suture distal to the dorsal root ganglion.
# After a ten to fourteen day post operative recovery period, a spinal catheter was introduced. Five days following the second surgery, intrathecal drug administration was accomplished using a gear driven micro-injection syringe connected to a spinal catheter inserted through the foramen magnum. Prior to testing, the rats were placed in clear plastic wire meshed cages and allowed to acclimate.
# To assess the 50% mechanical threshold for paw withdrawal, a von Frey hair was applied to the hind foot avoiding the foot pad. Each of the von Frey hairs, which are calibrated to bend at increasing log forces, were pressed perpendicularly to the foot with sufficient force to cause slight bending for a duration of approximately six to eight seconds. A positive response was noted if the foot was sharply withdrawn. Six data points were collected for each point with the maximum and minimum stimulus noted for each time point. The resulting pattern of the responses was tabulated, and the 50% response threshold was computed. The graph gives the response to the indicated dosage of peptide given as a single intrathecal bolus injection. The X-axis indicates the time after the injection at which point the hypersensitivity to pressure on the foot pad was measured.
substance,measurement,setting,value
T[dA]LIDNNATEEILY [SEQ ID NO:2],neurite outgrowth (percentage of neurite bearing cells),"[1]; 24 hours, compared to a scrambled control peptide",significantly increases neurite outgrowth
same,concentration at which increased neurite outgrowth is evident,[1]; as little as,0.5 ng/mL
same,number of trypan blue-positive (dead) cells,NS20Y cells,substantially reduces the number of trypan blue-positive (dead) cells
same,Schwann cell death,Schwann cells,reduces Schwann cell death in a dose-dependent manner
same,time of maximum (peak) effect post-injection,Chung model rats; intrathecal bolus,15 to 30 min
same,time of return to the pre-injection value,"Chung model rats; intrathecal bolus, FIG. 2",≤ 60 min
same,tactile allodynia (force threshold),"Chung model rats; intrathecal bolus, doses of FIG. 2",effective in reducing allodynia
same,activity in alleviating neuropathic pain as assayed using Chung rats,Chung model rats; summary statement,reduces the painful allodynia; also recorded: alleviate neuropathic pain
